Key:
[1] = system: BHK cells expressing ABCA1; assay: Radiolabeled cholesterol efflux from ABCA1-BHK cells; format: cell-based; conditions: [3H]-cholesterol transferred from ABCA1-BHK cells to serum free medium containing peptides over 18 h; triplicates
[2] = Solubilization of DMPC lipid vesicles by peptides; format: physicochemical; conditions: DMPC vesicles 1 mg/mL in PBS, peptide 0.1 mg/mL, 24 °C, 660 nm

Sequence: VLESFKVSFLSALEEYTKKLNT
- ABCA1-mediated cholesterol efflux [1]: almost completely inactive
- DMPC vesicle solubilization, comparison between peptides [2]: less effective than the other active peptides

Source: publication PMC8482877 (Biochemical and biophysical research communications, 2020)
